# From US20100222421A1, “Usage of Baicalein in the Preparation of a Pharmaceutical Composition for the Treatment of Traumatic Brain Injury” (National Defense Medical Center, priority 2009, published 2010)
# Key:
# [1] = tested on: rats with controlled cortical impact (CCI) injury; assay: Tactile adhesive-removal somatosensory test after CCI injury; type: in vivo, rat; conditions: P<0.05; for adhesive-removal times versus vehicle-treated rats: days 1, 4 and 7
# Description: A previously described CCI injury procedure was utilized (Chen et al., 2003). Male Sprague-Dawley rats, which have body weight of 250-300 g, were anaesthetized with sodium pentobarbital (i.p.; 50 mgkg^−1; Rhone Merieux, Harlow, UK) and placed in a stereotaxic frame. A 5-mm craniotomy was performed over the left parietal cortex, centered on the coronal suture and 3 mm lateral to the sagittal suture. Considerable care was taken to avoid injury to the underlying dura. Injury was made using a pneumatic piston with a rounded metal tip (2.5 mm diameter) that was angled 22.5° C. to the vertical so that the tip was perpendicular with the brain surface at the centre of the craniotomy. A velocity of 4 ms^−1 and a deformation depth 2 mm below the dura were used. The bone flap was immediately replaced and sealed, and the scalp was closed with sutures. Body temperature was monitored throughout the surgery by a rectal probe; temperature was maintained at 37.0±0.5° C. using a heated pad. Rats were placed in a heated cage to maintain body temperature, while recovering from anaesthesia. Baicalein (30 mg kg^−1) dissolved in 10% dimethyl sulphoxide (0.25-0.3 mL) or a corresponding volume of vehicle (10% dimethyl sulphoxide) was administered i.p. immediately following injury or daily for 4 days (immediately, 25, 49 and 73 h) after injury. Behaviour testing using the rotarod, tactile adhesive removal, mNSS and beam walk tests was performed at 28 hours as well as 4, 7, 14, 21 and 28 days post-injury. At 14 and 28 days, the animals were killed, perfused intravascularly and their brains were processed with cresyl violet staining to assess contusion volume (n=8 for each group). […] Behaviour testing was performed before CCI and at […] after CCI by an observer who was unaware of the experimental treatments. […] The time required for each rat to remove adhesive from the forelimb was recorded for five trials per day. […] One hour before CCI, mean latency (in seconds) over five trials to remove the contralateral (right) adhesive was recorded as the pre-injury baseline value.
# TNF-α mRNA = assay: Real-time quantitative RT-PCR, TNF-α mRNA after CCI injury; type: in vivo, rat; conditions: single-dose 30 mg kg^-1 i.p.; ipsilateral cortex, 6 h after injury; P<0.05
# Description: A previously described CCI injury procedure was utilized (Chen et al., 2003). Male Sprague-Dawley rats, which have body weight of 250-300 g, were anaesthetized with sodium pentobarbital (i.p.; 50 mgkg^−1; Rhone Merieux, Harlow, UK) and placed in a stereotaxic frame. A 5-mm craniotomy was performed over the left parietal cortex, centered on the coronal suture and 3 mm lateral to the sagittal suture. Considerable care was taken to avoid injury to the underlying dura. Injury was made using a pneumatic piston with a rounded metal tip (2.5 mm diameter) that was angled 22.5° C. to the vertical so that the tip was perpendicular with the brain surface at the centre of the craniotomy. A velocity of 4 ms^−1 and a deformation depth 2 mm below the dura were used. […] Body temperature was monitored throughout the surgery by a rectal probe; temperature was maintained at 37.0±0.5° C. using a heated pad. […] Testing after injury was as follows: (1) real-time quantitative RT-PCR analysis for TNF-α, IL-1β and IL-6 mRNA expression at 6 h post-injury (n=7 for each group); (2) FluoroJade B (FJB) staining, TNF-α, IL-1β and IL-6 immunohistochemistry, as well as ELISA at 24 h post-injury to assess degenerative neurons and to determine cytokine expression (n=7 for each group). […] Approximately 50 mg tissue was collected from the ipsilateral (injured) hemisphere and processed for real-time quantitative RT-PCR. […]
compound,measurement,setting,value
O=c1cc(-c2ccccc2)oc2cc(O)c(O)c(O)c12 [baicalein],"adhesive-removal times, multiple doses versus single dose","[1]; 30 mg kg^-1 i.p., only on day 7 after injury",significantly lower
same,adhesive-removal times versus vehicle-treated rats,[1]; multiple-dose 30 mg kg^-1 i.p. daily for 4 days,significantly lower
same,adhesive-removal times versus vehicle-treated rats,[1]; single-dose 30 mg kg^-1 i.p.,significantly lower
same,"TNF-α mRNA level, % of level in vehicle-treated injured rats",TNF-α mRNA,49%
